Measurements published in patent publication US20180117082A1, “ANTIFUNGAL COMPOSITION/TREATMENT” (THE UNIVERSITY OF NOTTINGHAM, priority 2015, published 2018).

Key:
[1] = system: Zygosaccharomyces bailii; experiment: Growth inhibition assay on solid medium, spotted serial dilutions; format: cell-based; settings: same concentrations as in the combinations, each agent alone (FIG. 2A)
Source text: Images were captured after 2 d (YEPD) or 3 d (YNB) growth at 30 C. For growth-inhibition assays on solid medium with R. solani, circular sections of ˜0.5 cm diameter were excised from cultures on PDA and transferred to the centre of fresh plates. Images were captured after 3 d growth at 28 C and the total mycelial area determined using ImageJ and GIMP2 software. Where specified, chemical supplements were included in the solid media.

[2] = system: R. solani; experiment: Growth inhibition assay in PDB medium (OD600); settings: same concentrations as in the combinations (FIG. 6, FIG. 7)
Experimental: (§1) Candida spp. or S. cerevisiae were inoculated from YEPD plates to YEPD broth (composition as above, minus agar) and cultured overnight at 30° C., 120 rev min^−1. Overnight cultures were diluted to OD600˜0.5 and cultured for a further 4 h in fresh YEPD before dilution of these experimental cultures to OD600˜0.01 or ˜0.1 in the same medium. Aliquots (300 μl) of the diluted culture plus any chemical supplements (see above), as specified, were transferred to 48-well plates (Greiner Bio-One). OD600 was monitored continuously in a BioTek Powerwave-XS microplate spectrophotometer, with shaking at 30 C. […] Spores of R. solani or Z. tritici were inoculated from PDA plates to potato dextrose broth (PDB; Fluka) (20,000 spores ml^−1). Aliquots (150 μl) of the diluted culture plus any chemical supplements, as specified, were transferred to 96-well plates (Greiner Bio-one) and cultured over 8 d at 24° C., 120 rev min-1. OD600 was monitored every day in a BioTek EL800 microplate spectrophotometer.

[3] = system: Rhizoctonia solani; experiment: Growth inhibition assay on solid medium (PDA agar), mycelial outgrowth; format: cell-based; settings: 300 μg ml^−1 paromomycin or 15 mM molybdate alone (FIG. 2B)
Experimental: For qualitative growth-inhibition assays with yeasts on solid medium, experimental cultures prepared as described above were adjusted to OD600˜2.0, 0.2, 0.02, 0.002, 0.0002 and the dilution series spotted (4 μl) on to either YEPD agar (above) or yeast nitrogen base (YNB) agar: 0.69% (w/v) yeast nitrogen base without amino acids (Formedium; Norfolk, UK) supplemented with 2% (w/v) D-glucose, 0.06 mg ml^−1 leucine, 0.02 mg ml^−1 histidine, 0.02 mg ml^−1 uracil and 2% (w/v) bacteriological agar (Sigma-Aldrich). Images were captured after 2 d (YEPD) or 3 d (YNB) growth at 30 C. For growth-inhibition assays on solid medium with R. solani, circular sections of ˜0.5 cm diameter were excised from cultures on PDA and transferred to the centre of fresh plates. Images were captured after 3 d growth at 28 C and the total mycelial area determined using ImageJ and GIMP2 software. Where specified, chemical supplements were included in the solid media.

[4] = system: Candida albicans; experiment: Growth inhibition assay in YEPD broth (OD600); format: cell-based; settings: 25 μM chromate, 200 μg ml^−1 paromomycin or 10 μg ml^−1 hygromycin, each alone (FIG. 1A)
Experimental: as §1

Compound | effect on growth, agent alone [1] | inhibitory effect, agent individually [2] | growth-inhibitory effect, agent alone [3] | inhibitory effect on growth, agent alone [4]
O=S(=O)(O)c1cc(N=C=S)ccc1C=Cc1ccc(N=C=S)cc1S(=O)(=O)O [DIDS, 4,4′-diisothio-cyanotostilbene-2,2′-disulphonate] | neither agent alone had a significant effect on growth | – | – | –
[Cu] [copper] | – | none of these agents had an inhibitory effect individually | – | –
[O]=[Mo](=[O])([O-])[O-] [molybdate] | neither agent alone had a significant effect on growth | – | neither agent alone had a marked growth-inhibitory effect | –
CCC[C@H](N)C(=O)O [norvaline] | – | none of these agents had an inhibitory effect individually | – | –
NC[C@@H]1O[C@H](O[C@H]2[C@@H](O)[C@H](O[C@@H]3[C@@H](O)[C@H](N)C[C@H](N)[C@H]3O[C@H]3O[C@H](CO)[C@@H](O)[C@H](O)[C@H]3N)O[C@@H]2CO)[C@H](N)[C@@H](O)[C@@H]1O [paromomycin] | neither agent alone had a significant effect on growth | – | neither agent alone had a marked growth-inhibitory effect | no discernible inhibitory effect
O=[Se](=O)(O)O [selenate] | – | none of these agents had an inhibitory effect individually | – | –
CN(C)C(=S)SSC(=S)N(C)C [thiram] | – | none of these agents had an inhibitory effect individually | – | –
